Source: patent US4260630A, “Skin diseases” (priority 1977, dated 1981)
Entries after “also recorded” stand apart in the source; their conditions may differ.

Columns and labels:
calf thymus DNA = experiment: Photobinding to native calf thymus DNA in vitro; format: binding; settings: for cpm/μg DNA / μg 3-CPs/μg DNA: 6 × 10^-5 M
Description: These determinations were done in vitro and in vivo. […] The thickness of the irradiated sample was 1 mm. After irradiation, the solution was diluted by a factor of 2, and NaCl was added to a final concentration of 1 M. The DNA was precipitated with 2 volumes of cold pure ethanol. The samples were left overnight in the cold at -20° C. The precipitate was then washed by centrifugation three times with 3 ml of 70% ethanol and redissolved in 3 ml of water. The DNA recovery was checked by determination of the optical density of the solution at 260 nm.

Saccharomyces cerevisiae [1] = experiment: Induction of cytoplasmic "petite" mutations in yeast; settings: compared at the same survival level (10%)
Description: A wild-type strain 211-1aM (29) of Saccharomyces cerivisiae was used, and the following mutants derived from it: S24-12c rad2-20 deficient in excision repair and S25-13b rad9-4 likely to be blocked in a recombinational repair pathway; a double mutant S 2057NL-24 rad2-20 -rad9-4 clone B was obtained by tetrad analysis of a heterozygote [formula]
The media and culture conditions used were as described in D. Averbeck, E. Moustacchi, (1975) Biochim. Biophys. Acta, 395, 393-404.
10^6 cells/ml in saline (0.9% NaCl) were treated for 30 minutes with the drugs at a final concentration of 10 μg/ml and 1.2% ethanol present.
A Philips HPW 125 culot Edison high pressure mercury lamp was used with maximal output at the wavelength 365 nm. The irradiation dose measured by actinometry was 10 J/m^2 per sec., using the following set up: 10 ml of actinometer solution (or the cell suspension, usually 1×10^6 cells/ml), stirred continuously by a magnetic stirrer, were irradiated at room temperature in an open Petri dish of 10 cm diameter at a distance of 10 cm from the center of the light bulb which was mounted horizontally. A 2 mm thick pyrex glass sheet (20×25 cm) was placed in the center of the light beam to cut out UV light of wavelength below 340 nm. […]

Saccharomyces cerevisiae [2] = experiment: Repair of photoinduced lesions in yeast (repair mutants, agar holding); format: cell-based
Description: Biophys. Acta, 395, 393-404.
Consequently, it appears that the excision repair pathway in wild type and rad9-4 cells is essential in AHR for both compounds.

yeast DNA [3] = experiment: Melting and reassociation (cross-link formation) of yeast DNA treated in vitro plus 365 nm light; format: biochemical
Description: Measurement of the melting and reassociation characteristics of yeast DNA:
Biophys. […] The fractions containing the nuclear DNA were pooled and dialysed against a 0.1 M, pH 7 phosphate buffer. […] Unirradiated samples of DNA with or without the drugs were taken as references.
The cross-links formation of the two furocoumarins with native yeast DNA was tested by measuring the denaturation and renaturation pattern.

yeast DNA [4] = experiment: Photobinding to yeast DNA in vivo (radiolabelled drug plus 365 nm light); format: binding, Saccharomyces cerevisiae
Description: The radioactivity of an aliquot (0.1 ml) of this solution was measured in 5 ml of scintillation mixture (Nuclear Entreprise, Ltd., Edinburgh, Scotland, NE 250).
For the in vivo determinations stationary phase cells of the haploid wild type strain N 123 were prepared as previously described.
2 ml cell suspensions were exposed to several doses of 365 nm light. In parallel, non irradiated samples were incubated for the same periods. Immediately after incubation and/or irradiation, the samples were centrifuged and the pellet was washed 3 times with 5 ml of saline (0.9% NaCl). The washed cell pellet was resuspended in 1 ml of saline and 1 ml of 2 N NaOH was added in order to hydrolyze the RNA. The suspension was incubated overnight in the dark at room temperature, then cooled down on ice, and 2 ml of 50% TCA were added slowly. The samples were left 20 minutes on ice and the precipitated DNA was filtered on a glass fiber filter disc (Whatman GF/A, 2.1 cm diameter). In some cases the filtrate containing the acid-soluble material was kept aside, and the radioactivity of an aliquot added to 5 ml of NE250 scintillation mixture measured. The precipitate was washed 3 times with 5 ml of 5% cold TCA and 5 ml of 70% ethanol. The filters were then dried and the radioactivity measured in plastic counting vials containing 5 ml of scintillation mixture (NE 250) in a Tricarb Packard scintillation spectrophotometer.

[5] = 15 min, 18.9 × 10^4 ergs. mm^-2 365 nm
[6] = 30 min, 37.8 × 10^4 ergs. mm^-2 365 nm
[7] = 45 min, 56.7 × 10^4 ergs. mm^-2 365 nm
[8] = 60 min, 75.6 × 10^4 ergs. mm^-2 365 nm
[9] = 5 min, 6.3 × 10^4 ergs.mm^-2 365 nm
[10] = 10 min, 12.6 × 10^4 ergs.mm^-2 365 nm
[11] = 15 min, 18.9 × 10^4 ergs.mm^-2 365 nm
[12] = 20 min, 25.2 × 10^4 ergs.mm^-2 365 nm
[13] = 30 min, 38.8 × 10^4 ergs.mm^-2 365 nm
[14] = 40 min, 50.4 × 10^4 ergs.mm^-2 365 nm
[15] = 60 min, 75.6 × 10^4 ergs.mm^-2 365 nm

Structure (SMILES): CCOC(=O)c1cc2cc3ccoc3cc2oc1=O [Example 3-CPs, 3-carboethoxypsoralen]
- cpm/μg DNA (calf thymus DNA; 0-60 min incubation (dark)): 0.21 cpm/μg DNA
- μg 3-CPs/μg DNA (calf thymus DNA; 0-60 min incubation (dark)): 0.009×10^-3 μg 3-CPs/μg DNA
- cpm/μg DNA (calf thymus DNA; [5]): 3.29 cpm/μg DNA
- μg 3-CPs/μg DNA (calf thymus DNA; [5]): 0.14×10^-3 μg 3-CPs/μg DNA
- cpm/μg DNA (calf thymus DNA; [6]): 4.25 cpm/μg DNA
- μg 3-CPs/μg DNA (calf thymus DNA; [6]): 0.18×10^-3 μg 3-CPs/μg DNA
- cpm/μg DNA (calf thymus DNA; [7]): 4.30 cpm/μg DNA
- μg 3-CPs/μg DNA (calf thymus DNA; [7]): 0.18×10^-3 μg 3-CPs/μg DNA
- cpm/μg DNA (calf thymus DNA; [8]): 3.10 cpm/μg DNA
- μg 3-CPs/μg DNA (calf thymus DNA; [8]): 0.13×10^-3 μg 3-CPs/μg DNA
- dose of 365 nm light up to which binding increases rapidly (calf thymus DNA; in vitro): up to 3780 J/m^2
- difference in photoreactivity with DNA in vitro, 3-CPs vs 8-MOP (calf thymus DNA; in vitro (table 3)): 4.8 factor
- photoreactivity with native DNA, times lower than 8-MOP (calf thymus DNA; initial part of the photoreaction): about 5 times
- induction of cytoplasmic "petite" mutations (Saccharomyces cerevisiae [1]): the most reactive compound
- dark repair by strain defective in excision (Saccharomyces cerevisiae [2]; agar holding): unable to perform a dark repair
- repair by strain defective in recombination (Saccharomyces cerevisiae [2]; agar holding): reduced capacity to repair
- interaction between rad2 and rad9 repair pathways (Saccharomyces cerevisiae [2]; plus 365 nm light): synergistic interaction
- kinetics of agar holding recovery (AHR) (Saccharomyces cerevisiae [2]; wild-type cells): same kinetics of AHR
- reassociation of DNA after heat denaturation (yeast DNA [3]): such a reassociation was not found
- cross-links in DNA (yeast DNA [3]; dose range used): does not induce cross-links in DNA; also recorded: absence of cross-link formation
- Molecules 3-CPs/μg DNA (yeast DNA [4]; 5-60 min, no 365 nm light): 0.012 Molecules 3-CPs/μg DNA × 10^14
- cpm for 10^8 cells (yeast DNA [4]; 5-60 min, no 365 nm light): 67.75 cpm for 10^8 cells
- μg 3-CPs/μg DNA (yeast DNA [4]; 5-60 min, no 365 nm light): 0.05 μg 3-CPs/μg DNA × 10^-2
- molecules linked to DNA per cell (yeast DNA [4]; 18.9×10^3 J/m^2, 5×10^-5 M): 10.5×10^6 molecules per cell
- binding ratio: pyrimidine bases per 1 bound molecule (yeast DNA [4]; 18.9×10^3 J/m^2, 5×10^-5 M, on average): 2 pyrimidine bases
- Molecules 3-CPs/μg DNA (yeast DNA [4]; [9]): 0.92 Molecules 3-CPs/μg DNA × 10^14
- cpm for 10^8 cells (yeast DNA [4]; [9]): 5030.5 cpm for 10^8 cells
- μg 3-CPs/μg DNA (yeast DNA [4]; [9]): 3.9 μg 3-CPs/μg DNA × 10^-2
- binding to DNA in vivo compared with in vitro (yeast DNA [4]; 365 nm light): higher in the in vivo condition than in vitro
- Molecules 3-CPs/μg DNA (yeast DNA [4]; [10]): 1.34 Molecules 3-CPs/μg DNA × 10^14
- cpm for 10^8 cells (yeast DNA [4]; [10]): 9409 cpm for 10^8 cells
- μg 3-CPs/μg DNA (yeast DNA [4]; [10]): 5.7 μg 3-CPs/μg DNA × 10^-2
- Molecules 3-CPs/μg DNA (yeast DNA [4]; [11]): 2.1 Molecules 3-CPs/μg DNA × 10^14
- cpm for 10^8 cells (yeast DNA [4]; [11]): 11386.5 cpm for 10^8 cells
- μg 3-CPs/μg DNA (yeast DNA [4]; [11]): 9 μg 3-CPs/μg DNA × 10^-2
- Molecules 3-CPs/μg DNA (yeast DNA [4]; [12]): 2.8 Molecules 3-CPs/μg DNA × 10^14
- cpm for 10^8 cells (yeast DNA [4]; [12]): 15650.2 cpm for 10^8 cells
- μg 3-CPs/μg DNA (yeast DNA [4]; [12]): 12.3 μg 3-CPs/μg DNA × 10^-2
- Molecules 3-CPs/μg DNA (yeast DNA [4]; [13]): 2.8 Molecules 3-CPs/μg DNA × 10^14
- cpm for 10^8 cells (yeast DNA [4]; [13]): 15307 cpm for 10^8 cells
- μg 3-CPs/μg DNA (yeast DNA [4]; [13]): 12 μg 3-CPs/μg DNA × 10^-2
- Molecules 3-CPs/μg DNA (yeast DNA [4]; [14]): 2.6 Molecules 3-CPs/μg DNA × 10^14
- cpm for 10^8 cells (yeast DNA [4]; [14]): 14248 cpm for 10^8 cells
- μg 3-CPs/μg DNA (yeast DNA [4]; [14]): 11 μg 3-CPs/μg DNA × 10^-2
- Molecules 3-CPs/μg DNA (yeast DNA [4]; [15]): 2.3 Molecules 3-CPs/μg DNA × 10^14
- cpm for 10^8 cells (yeast DNA [4]; [15]): 16476 cpm for 10^8 cells
